22 molecules from ChEMBL document CHEMBL1201862, “PubChem BioAssay data set” (2004) can be followed below.

Structures are written as SMILES. Active and inactive are the calls of the source.

One experiment deals with Paired box protein Pax-8 (Homo sapiens, UniProt Q06710). Briefly: PAX8 transcriptional activity inhibition in RMG-I – RMG-I cells, luciferase, cherry-pick, dose response (AID 687027).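 Also: luciferase reporter driven by Pax8 target thyroperoxidase promoter measured by SteadyGlo luminescence.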 It counts as functional, cell-based.
Sequence of Paired box protein Pax-8 (Q06710 whole entry): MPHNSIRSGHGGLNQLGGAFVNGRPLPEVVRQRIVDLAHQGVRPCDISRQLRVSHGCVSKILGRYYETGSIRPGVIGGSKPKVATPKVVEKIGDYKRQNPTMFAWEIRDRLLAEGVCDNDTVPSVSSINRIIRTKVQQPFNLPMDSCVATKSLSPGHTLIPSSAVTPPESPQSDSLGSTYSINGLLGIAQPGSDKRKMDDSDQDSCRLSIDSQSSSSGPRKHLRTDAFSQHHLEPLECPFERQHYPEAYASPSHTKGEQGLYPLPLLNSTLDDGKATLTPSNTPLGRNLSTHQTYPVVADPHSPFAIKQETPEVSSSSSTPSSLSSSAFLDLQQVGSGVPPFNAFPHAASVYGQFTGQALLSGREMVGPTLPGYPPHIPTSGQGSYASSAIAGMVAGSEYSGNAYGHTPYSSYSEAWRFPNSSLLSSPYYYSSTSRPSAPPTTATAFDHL
The target of the next experiment is T1, Protein skinhead-1 (Caenorhabditis elegans, UniProt P34707).
T1 sequence (P34707 whole entry): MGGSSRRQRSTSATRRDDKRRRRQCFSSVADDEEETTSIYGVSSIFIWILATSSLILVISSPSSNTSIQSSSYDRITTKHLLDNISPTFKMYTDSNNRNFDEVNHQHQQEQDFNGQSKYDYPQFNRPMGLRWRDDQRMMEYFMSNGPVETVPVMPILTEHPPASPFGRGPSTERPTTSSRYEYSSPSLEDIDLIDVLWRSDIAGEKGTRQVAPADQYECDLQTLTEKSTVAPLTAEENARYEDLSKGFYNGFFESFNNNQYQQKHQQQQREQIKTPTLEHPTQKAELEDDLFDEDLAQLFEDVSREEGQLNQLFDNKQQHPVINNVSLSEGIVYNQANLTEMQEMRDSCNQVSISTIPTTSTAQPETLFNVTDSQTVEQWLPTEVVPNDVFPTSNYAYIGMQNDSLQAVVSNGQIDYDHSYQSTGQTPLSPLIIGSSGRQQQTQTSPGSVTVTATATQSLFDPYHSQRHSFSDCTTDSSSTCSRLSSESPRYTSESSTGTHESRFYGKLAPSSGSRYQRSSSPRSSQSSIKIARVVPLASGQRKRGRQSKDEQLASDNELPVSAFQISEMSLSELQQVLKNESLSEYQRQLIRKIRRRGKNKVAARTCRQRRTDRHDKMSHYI
It counts as functional.

In experiment [1] the target is T2, Heat shock factor protein 1 (Mus musculus, UniProt P38532).
T2 sequence (P38532 whole entry): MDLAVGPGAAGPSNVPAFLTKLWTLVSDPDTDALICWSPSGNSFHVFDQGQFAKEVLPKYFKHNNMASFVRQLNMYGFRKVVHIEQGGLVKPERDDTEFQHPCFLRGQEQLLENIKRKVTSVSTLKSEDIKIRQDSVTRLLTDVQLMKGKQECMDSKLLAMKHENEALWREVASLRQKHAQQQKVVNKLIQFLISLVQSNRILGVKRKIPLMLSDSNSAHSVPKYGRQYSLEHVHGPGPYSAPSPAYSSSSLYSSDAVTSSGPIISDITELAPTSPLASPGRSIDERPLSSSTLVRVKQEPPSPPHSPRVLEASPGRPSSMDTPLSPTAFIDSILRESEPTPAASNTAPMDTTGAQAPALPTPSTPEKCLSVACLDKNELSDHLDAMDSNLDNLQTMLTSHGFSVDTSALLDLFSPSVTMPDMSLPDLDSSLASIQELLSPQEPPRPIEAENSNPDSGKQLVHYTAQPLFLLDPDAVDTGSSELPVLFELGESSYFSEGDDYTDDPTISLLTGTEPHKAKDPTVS
Kind of experiment: decrease of HSF1-responsive luciferase luminescence – cell-based, NIH3T3, dose retest, confirmation (AID 2382).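 Also: NIH3T3 fibroblasts with HSF1-driven luciferase reporter stressed by proteasome inhibitor MG132; luminescence from HSF1-driven luciferase expression after 8 hours of MG132 stress.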 It counts as functional.

Another experiment concerns H9c2. Briefly: cells. The class given is functional, cell-based. Conditions: Rattus norvegicus, H9c2, Myocardium.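 Also: confirmatory concentration-response retest of ultra-high-throughput screening hits for modulation of myocardial damage; cell death induced by hydrogen peroxide oxidative stress; compound pretreatment for 60 min then peroxide exposure for 2 h; potency is for protecting the cells against peroxide damage rather than for killing them.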
In the next experiment the target is Cytochrome P450 2C9 (Homo sapiens, UniProt P11712).
Sequence of Cytochrome P450 2C9 (P11712 whole entry): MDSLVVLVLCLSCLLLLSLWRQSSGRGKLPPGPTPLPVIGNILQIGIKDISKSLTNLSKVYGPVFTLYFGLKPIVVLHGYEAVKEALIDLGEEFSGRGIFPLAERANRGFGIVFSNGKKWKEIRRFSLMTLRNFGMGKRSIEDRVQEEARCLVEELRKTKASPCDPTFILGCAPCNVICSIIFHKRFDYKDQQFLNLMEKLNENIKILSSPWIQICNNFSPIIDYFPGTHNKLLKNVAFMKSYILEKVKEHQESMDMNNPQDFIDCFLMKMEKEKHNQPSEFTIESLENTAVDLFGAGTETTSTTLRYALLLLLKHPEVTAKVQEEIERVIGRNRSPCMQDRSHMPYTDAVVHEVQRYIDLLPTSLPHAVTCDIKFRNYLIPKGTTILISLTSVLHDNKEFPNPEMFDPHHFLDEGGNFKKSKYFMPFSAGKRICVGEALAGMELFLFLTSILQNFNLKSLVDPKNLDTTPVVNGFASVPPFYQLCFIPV
A further experiment has as its target Cytochrome P450 2C19 (Homo sapiens, UniProt P33261). Briefly: Cytochrome panel assay with activity outcomes. Panel member name: p450-cyp2c19 Compounds with AC50 equal or less than 10 uM are considered active. The class given is functional. Conditions: read-out: AC50.

Sequence of Cytochrome P450 2C19 (P33261 whole entry): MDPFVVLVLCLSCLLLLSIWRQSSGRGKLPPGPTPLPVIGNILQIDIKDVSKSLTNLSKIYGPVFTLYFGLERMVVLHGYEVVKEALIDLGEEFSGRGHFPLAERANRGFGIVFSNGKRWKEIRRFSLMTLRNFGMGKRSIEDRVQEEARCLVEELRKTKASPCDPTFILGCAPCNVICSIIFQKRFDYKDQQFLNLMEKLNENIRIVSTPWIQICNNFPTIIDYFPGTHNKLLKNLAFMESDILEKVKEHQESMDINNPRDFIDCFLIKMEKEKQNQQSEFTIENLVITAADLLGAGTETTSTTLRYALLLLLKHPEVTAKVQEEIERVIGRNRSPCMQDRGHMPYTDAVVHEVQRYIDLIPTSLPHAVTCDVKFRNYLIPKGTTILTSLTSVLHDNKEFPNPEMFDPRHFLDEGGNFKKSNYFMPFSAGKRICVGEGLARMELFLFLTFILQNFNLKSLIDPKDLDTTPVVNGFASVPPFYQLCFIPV

For the molecule `Cc1ccccc1/N=C1\N=C(N)c2ccccc21`, the AC50 (usually the concentration giving half of the maximal activity seen) on Paired box protein Pax-8 was 17.3 µM (active).
Turning to `O=C(Nc1nc(SCc2ccc(F)cc2)ns1)c1ccco1`, the IC50 (as a rule, the concentration needed to halve the response being measured) at Protein skinhead-1 was 70.5 µM (inactive).
Same read-out and setting: the value for `CCOC(=O)Nc1nc(-c2ccc(F)cc2F)cs1` was 64.9 µM (inactive).
Turning to `COCCCNC(=O)c1cn(CC(C)C)c(=O)c2c1c1ccccc1n2C`, in experiment [1], the concentration giving a half-maximal response (EC50) (as a rule, the concentration at which the effect is half-maximal) is recorded as > 195 µM (not active). The IC50 on Protein skinhead-1 was > 100 µM (inactive).
As for `O=C(Nc1ccc(Cl)cc1)C(c1ccccc1)N(CCO)CCO` (stereo not given), the IC50 on Protein skinhead-1 was > 100 µM (inactive).
For the molecule `O=C(CCc1nc(O)c2ccccc2n1)NCC(=O)Nc1ccc(F)c(F)c1`, in the experiment on H9c2, the half-maximal inhibitory concentration (IC50) is 25.2 µM (active).
On the same count and under the same terms, the figure for `CN(C)C=O.COc1cc(/C=C/c2nc3ccccc3c(=O)n2-c2ccc(O)cc2)ccc1O` is > 79 µM (inactive).
On to `Brc1ccc(-c2nc(-c3cccnc3)no2)o1`, for which, on Protein skinhead-1, the IC50 is 42.7 µM (active).
`O=C(COC(=O)Cc1nnc(O)c2ccccc12)NNC(=O)c1ccc(Cl)cc1`: the IC50 with H9c2 was > 79 µM (inactive).
In the case of `Oc1cc(-c2ccccc2Cl)c2c(n1)CCC2`, the IC50 on Protein skinhead-1 is > 100 µM (inactive).
On the same count and under the same terms, the figure for `Cc1cccc(C(=O)Nc2ccc(C(=O)/C=C/c3cccs3)cc2)c1` is > 100 µM (inactive).
For `COc1ccc(-c2cc(C(=O)N(C)Cc3ccccc3F)c3ccccc3n2)cc1OC`, in the experiment on H9c2, the IC50 is 30.2 µM (inactive).
On the same count and under the same terms, the figure for `CCCCn1nc(NC(=O)c2cccs2)c2cc3cc(OC)ccc3nc21` is > 79 µM (inactive).
In the case of `CC1Cc2ccccc2N1C(=O)c1cc2c(=O)n3ccccc3nc2n1C` (stereo not given), the concentration at half-maximal activity (AC50) is 14.1 µM (inconclusive) on Cytochrome P450 2C9 and 7.08 µM (inconclusive) at Cytochrome P450 2C19. Moreover, the IC50 with H9c2 is 59.3 µM (inactive).
Regarding `O=C1CN(C(=O)c2ccc(Br)o2)C(c2ccccc2)c2cc(Br)ccc2N1` (stereo not given), at Protein skinhead-1, the IC50 was 83.6 µM (inactive).
Regarding `COC(=O)c1cc2ccc(OC)cc2c2cc(OC)c(OC)cc12`, the IC50 with H9c2 is > 79 µM (inactive).
The same measure, in the same setting: the figure for `COc1cc(/C=N/NC(=O)c2cccnc2)ccc1OS(=O)(=O)c1cc(C)ccc1C` is > 79 µM (inactive).
On to `COc1cccc(/C=N/NC(=O)c2ccc(N3CCCC3=O)cc2)c1`, for which, at Paired box protein Pax-8, the half-maximal activity concentration (AC50) is < 0.26 µM (active).
Consider `COCCNC(=O)c1ccc(-c2ccc(OC)cc2C)c2ccoc12`, for which the IC50 on Protein skinhead-1 was > 100 µM (inactive).
With `C[C@@H]1CCCCO[C@H](CN(C)C(=O)Nc2ccc(C(F)(F)F)cc2)[C@@H](C)CN([C@@H](C)CO)C(=O)c2cc(NS(=O)(=O)c3cccs3)ccc2O1`, the AC50 on Paired box protein Pax-8 is 6.63 µM (active).
On to `Cc1ccc(S(=O)(=O)Nc2ccc3c(c2)C(=O)N([C@@H](C)CO)C[C@H](C)[C@@H](CN(C)C(=O)Nc2ccc(C(F)(F)F)cc2)OCCCC[C@H](C)O3)cc1`, for which the concentration at half-maximal activity (AC50) at Paired box protein Pax-8 was 3.14 µM (active).
In the case of `COc1ccccc1-c1ccc2c(c1)[C@H]1[C@H](CCN1S(=O)(=O)c1ccccc1F)[C@H](CO)N2`, the AC50 at Paired box protein Pax-8 was 8.48 µM (active).
